From the supplement of paper PMC6045584
± gives the standard deviation of the averaged measurements.

Key:
SNX-5422 [1] = compound: T1, CC1(C)CC(=O)c2c(C(F)(F)F)nn(-c3ccc(C(N)=O)c(N[C@H]4CC[C@H](OC(=O)CN)CC4)c3)c2C1 [SNX-5422]; assay: surviving fraction relative to DMSO-only wells; higher = less growth inhibition; details: exposure time: 5 days
Procedure, shortened: (§1)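 Viability values are CellTiter-Glo luminescence readings, given as surviving fraction against the median of DMSO-only wells. The readings were taken after 10 minutes at room temperature, following five days of continuous exposure to inhibitors at 0.5, 1, 5, 10, 50, 100, 500 and 1000 nM that began 24 hours after log-phase tumour cell lines were seeded at 250–500 cells per well in 384-well plates. Every line was screened three times and kept only if replicate Pearson r >0.7 and median Z' >0.3.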

TIOGUANINE = compound: Nc1nc2[nH]cnc2c(=S)[nH]1 [TIOGUANINE]; assay: as above; details: exposure time: 5 days
Procedure, shortened: as §1

SAPACITABINE = compound: CCCCCCCCCCCCCCCC(=O)Nc1ccn([C@@H]2O[C@H](CO)[C@@H](O)[C@@H]2C#N)c(=O)n1 [SAPACITABINE]; assay: area under dose-response curve of surviving fraction (unscaled, Aref=0) (surviving fraction x log10(nM)); higher = more resistant; details: exposure time: 5 days; dose range 0.5-1000 nM
Procedure, shortened: (§2)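 Tumour cell lines in 384-well plates were exposed to eight inhibitor concentrations, from 0.5 to 1000 nM, for five days, and viability was read by CellTiter-Glo luminescence in three screens per line. Signals were normalised to DMSO-only wells, and 3-parameter logistic regression in the drc R package fitted dose-response survival curves to the surviving fractions. Area under the curve is given as the unscaled activity area. That area is taken over log10 dose with Aref = 0.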

AFATINIB = compound: CN(C)C/C=C/C(=O)Nc1cc2c(Nc3ccc(F)c(Cl)c3)ncnc2cc1O[C@H]1CCOC1 [AFATINIB]; assay: as above; details: exposure time: 5 days; dose range 0.5-1000 nM
Procedure, shortened: as §2

[2] = compound: Cn1cc(C2=Nc3cc(NC(=O)C(N)C4CCCCC4)cc4c3C2=CNNC4=O)cn1; assay: as above; details: exposure time: 5 days; dose range 0.5-1000 nM
Procedure, shortened: as §2

SNX-5422 [3] = compound: T1, SNX-5422; assay: as above; details: exposure time: 5 days; dose range 0.5-1000 nM
Procedure, shortened: as §2

Test System	surviving fraction (SNX-5422 [1]; 0.5 nM)	surviving fraction (SNX-5422 [1]; 1 nM)	surviving fraction (SNX-5422 [1]; 5 nM)	surviving fraction (SNX-5422 [1]; 10 nM)	surviving fraction (SNX-5422 [1]; 50 nM)	surviving fraction (SNX-5422 [1]; 100 nM)	surviving fraction (SNX-5422 [1]; 500 nM)	surviving fraction (SNX-5422 [1]; 1000 nM)	surviving fraction (TIOGUANINE; 0.5 nM)	surviving fraction (TIOGUANINE; 1 nM)	surviving fraction (TIOGUANINE; 5 nM)	surviving fraction (TIOGUANINE; 10 nM)	surviving fraction (TIOGUANINE; 50 nM)	surviving fraction (TIOGUANINE; 100 nM)	surviving fraction (TIOGUANINE; 500 nM)	surviving fraction (TIOGUANINE; 1000 nM)	area under dose-response curve (SAPACITABINE)	area under dose-response curve (AFATINIB)	area under dose-response curve [2]	area under dose-response curve (SNX-5422 [3])
MCF7 BREAST	0.9 ± 0.094	0.925 ± 0.068	0.94 ± 0.066	0.906 ± 0.07	0.627 ± 0.02	0.465 ± 0.011	0.303 ± 0.015	0.321 ± 0.01	0.824 ± 0.015	0.804 ± 0.075	0.846 ± 0.032	0.835 ± 0.025	0.903 ± 0.045	0.875 ± 0.069	0.872 ± 0.054	0.889 ± 0.055	2.58	3.17	2.85	2.3
COLO320DM LARGE INTESTINE	1.11 ± 0.05	1.25 ± 0.046	1.24 ± 0.27	1.13 ± 0.12	0.581 ± 0.029	0.309 ± 0.035	0.113 ± 0.0058	0.103 ± 0.009	1.13 ± 0.03	1.1 ± 0.056	1.003 ± 0.0076	1.09 ± 0.067	1.03 ± 0.019	1.09 ± 0.049	1.078 ± 0.0053	1.04 ± 0.049	2.44	3.24	3.21	2.19
NOS1 BONE	1.1 ± 0.11	1.08 ± 0.052	1.16 ± 0.067	0.947 ± 0.056	0.451 ± 0.037	0.276 ± 0.012	0.113 ± 0.0076	0.117 ± 0.014	1.12 ± 0.037	1.14 ± 0.028	1.15 ± 0.093	1.17 ± 0.075	1.23 ± 0.1	1.19 ± 0.058	1.06 ± 0.099	1.05 ± 0.065	2.87	2.86	2.73	2.09
KPD BONE	1 ± 0.015	1.03 ± 0.07	1.02 ± 0.054	0.954 ± 0.026	0.265 ± 0.0056	0.109 ± 0.004	0.0673 ± 0.0015	0.0643 ± 0.0067	0.998 ± 0.045	0.985 ± 0.098	0.989 ± 0.049	1 ± 0.047	1.03 ± 0.084	1.05 ± 0.027	1.03 ± 0.019	0.993 ± 0.059	2.81	3.02	2.3	1.89
HMLE3 BREAST	0.975 ± 0.02	1 ± 0.054	0.999 ± 0.074	1.09 ± 0.032	0.0933 ± 0.011	0.0567 ± 0.0045	0.0233 ± 0.0015	0.027 ± 0.001	0.914 ± 0.068	0.902 ± 0.015	0.95 ± 0.028	0.974 ± 0.019	0.97 ± 0.1	0.945 ± 0.072	0.905 ± 0.049	0.851 ± 0.09	2.03	3.07	2.79	1.89
CAL51 BREAST	0.902 ± 0.075	0.973 ± 0.016	1.02 ± 0.036	1 ± 0.034	0.261 ± 0.036	0.077 ± 0.0036	0.0237 ± 0.00058	0.0263 ± 0.0015	0.984 ± 0.03	0.965 ± 0.017	0.999 ± 0.018	1 ± 0.031	1.03 ± 0.049	1.06 ± 0.038	0.992 ± 0.051	0.979 ± 0.026	2.32	3.19	2.86	1.93
JURKAT HAEMATOPOIETIC AND LYMPHOID TISSUE	1.06 ± 0.014	1.05 ± 0.02	0.973 ± 0.082	0.942 ± 0.026	0.094 ± 0.0027	0.0437 ± 0.00058	0.0387 ± 0.0023	0.0443 ± 0.0011	1.05 ± 0.034	1.07 ± 0.032	1.07 ± 0.04	1.043 ± 0.0097	1.02 ± 0.039	1.04 ± 0.018	1.01 ± 0.012	0.565 ± 0.013	1.09	3.13	2.23	1.7
MDAMB468 BREAST	1.038 ± 0.0097	1.05 ± 0.097	1.1 ± 0.043	1.033 ± 0.009	0.138 ± 0.013	0.164 ± 0.021	0.221 ± 0.026	0.207 ± 0.031	1.02 ± 0.079	0.995 ± 0.025	1.08 ± 0.056	1.06 ± 0.1	1.1 ± 0.056	1.19 ± 0.087	1.04 ± 0.087	1.05 ± 0.042	2.27	2.26	2.58	1.94
CASKI CERVIX	0.913 ± 0.016	0.937 ± 0.021	0.932 ± 0.049	0.829 ± 0.074	0.119 ± 0.02	0.0603 ± 0.0035	0.031 ± 0.0036	0.033	0.902 ± 0.091	0.902 ± 0.056	0.934 ± 0.029	0.952 ± 0.032	0.9923 ± 0.0092	1.01 ± 0.014	0.962 ± 0.037	0.839 ± 0.072	2.91	0.986	2.04	1.63
MG63 BONE	1.04 ± 0.035	1.03 ± 0.047	1.09 ± 0.037	1.11 ± 0.053	0.496 ± 0.026	0.351 ± 0.029	0.13 ± 0.0085	0.136 ± 0.013	0.974 ± 0.035	0.97 ± 0.015	1.01 ± 0.014	0.991 ± 0.007	1.02 ± 0.026	1.03 ± 0.026	0.989 ± 0.0069	0.958 ± 0.03	2.19	3.27	2.46	2.18
JIMT1 BREAST	0.994 ± 0.017	0.973 ± 0.032	1.01 ± 0.026	1.01 ± 0.015	0.792 ± 0.0081	0.271 ± 0.029	0.0693 ± 0.0067	0.0723 ± 0.0026	0.966 ± 0.018	0.975 ± 0.023	0.984 ± 0.034	0.9947 ± 0.0086	1.05 ± 0.015	1.03 ± 0.025	0.9495 ± 0.0077	0.912 ± 0.0067	2.84	2.62	2.96	2.23
HELA CERVIX	1.08 ± 0.049	1.1 ± 0.031	1.09 ± 0.071	1.03 ± 0.028	1.2 ± 0.016	0.672 ± 0.081	0.228 ± 0.028	0.113 ± 0.016	0.998 ± 0.074	1.03 ± 0.053	0.994 ± 0.015	0.997 ± 0.055	1.06 ± 0.024	1.14 ± 0.019	1.14 ± 0.059	1.21 ± 0.056	2.94	3.69	3.79	2.79
HCC1806 BREAST	1.15 ± 0.15	1.04 ± 0.064	1.12 ± 0.012	1.07 ± 0.07	0.05 ± 0.0085	0.03 ± 0.001	0.029	0.035 ± 0.001	0.989 ± 0.061	1.1 ± 0.059	1.08 ± 0.11	1.08 ± 0.12	1.13 ± 0.15	1.13 ± 0.19	1.03 ± 0.12	0.952 ± 0.061	1.25	2.28	2.07	1.85
OSHN BONE	1.1 ± 0.024	1.11 ± 0.036	1.11 ± 0.012	1.1 ± 0.018	0.842 ± 0.067	0.162 ± 0.0064	0.138 ± 0.0047	0.136 ± 0.0076	1.01 ± 0.037	1.02 ± 0.026	1.01 ± 0.035	1.02 ± 0.034	1.02 ± 0.048	1.04 ± 0.038	1.01 ± 0.039	0.9787 ± 0.007	2.83	3.58	2.6	2.25
HOSMNG BONE	1.02 ± 0.017	1 ± 0.036	1.01 ± 0.04	0.973 ± 0.018	0.964 ± 0.084	0.299 ± 0.061	0.12 ± 0.012	0.108 ± 0.0047	0.991 ± 0.03	1.01 ± 0.029	0.988 ± 0.068	0.989 ± 0.016	1.05 ± 0.047	1.02 ± 0.089	1.04 ± 0.037	0.983 ± 0.028	3.25	3.23	3.09	2.33
